This is an account of results in ChEMBL document CHEMBL1201862, “PubChem BioAssay data set” (2004).

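48-hour exposure; five concentrations; linearly interpolated endpoints. At the GI50, growth is halved.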 The source made the active and inactive calls. No stated cut-off is given here; in the data, active = GI50 up to about 1.1 µM and inactive = higher.

Some test systems named below: OVCAR-8; NCI-H460; ACHN; HOP-92; EKVX; A549; NCI-H23; PC-3; SF-539; NCI-H522; HCT-15; RPMI-8226; HT-29; MDA-MB-435; SK-MEL-5; IGROV-1; DU-145; OVCAR-3; M14; SNB-75.
Holding throughout (test): DTP human tumour cell line panel, 48 h

Take `CCOC(=O)Nc1ccc(S(=O)(=O)Nn2cnnc2)cc1`: the GI50 in the experiment on OVCAR-8 is > 100 µM (inactive); in the experiment with NCI-H460, 50 µM (inactive); in the experiment with ACHN, 81.3 µM (inactive); in the experiment with HOP-92, 63.7 µM (inactive); in the experiment with EKVX, > 100 µM (inactive); in the experiment with A549, 60.4 µM (inactive). The GI50 in the experiment with NCI-H23 is > 100 µM (inactive); in the experiment with PC-3 it was 57.4 µM (inactive); with SF-539, 22.4 µM (inactive); in the experiment on NCI-H522, 48.1 µM (inactive); in the experiment on HCT-15, 50.1 µM; in the experiment with RPMI-8226, 22.6 µM (inactive). In addition, the GI50 in the experiment with HT-29 is 20.3 µM (inactive); with MDA-MB-435 it was 16.4 µM (inactive); in the experiment with SK-MEL-5, 23.9 µM (inactive); in the experiment with IGROV-1, 40.7 µM (inactive); in the experiment on DU-145 it was > 100 µM (inactive); in the experiment on OVCAR-3, 27.9 µM (inactive). Further, the GI50 with M14 is 43 µM (inactive).
Turning to `COC(=O)/C=C/c1cc2c(cc1-c1c(C(=O)O)cc(OC)c(OC)c1OC)OCO2`, the GI50 in the experiment with OVCAR-8, with ACHN, with SNB-75, in the experiment with HOP-92, in the experiment on A549 and with NCI-H23 was > 10 µM (inactive) in each case. The GI50 in the experiment with PC-3 is > 10 µM (inactive); in the experiment with SF-539 it was > 10 µM (inactive); in the experiment with NCI-H522, > 10 µM (inactive); in the experiment with HCT-15, above 10 µM; in the experiment with RPMI-8226, > 10 µM (inactive); with HT-29, > 10 µM (inactive). The GI50 in the experiment with MDA-MB-435, in the experiment with SK-MEL-5, in the experiment on IGROV-1, in the experiment with DU-145, in the experiment on OVCAR-3 and with M14 was > 10 µM (inactive) in each case.
On to `Cc1cc(C)c2cc(N)c(Cl)nc2n1`, for which the GI50 with OVCAR-8 was > 100 µM (inactive); in the experiment with NCI-H460, 96.4 µM (inactive); with ACHN, > 100 µM (inactive); with SNB-75, > 100 µM (inactive); in the experiment on HOP-92, > 100 µM (inactive); in the experiment on EKVX, > 100 µM (inactive). Moreover, the GI50 in the experiment with A549 is > 100 µM (inactive); in the experiment with NCI-H23, > 100 µM (inactive); in the experiment on PC-3, > 100 µM (inactive); with SF-539, > 100 µM (inactive); in the experiment with NCI-H522, 18.7 µM (inactive); in the experiment on HCT-15 it was 60.5 µM. The GI50 in the experiment with RPMI-8226 was > 100 µM (inactive); in the experiment on HT-29, 63.5 µM (inactive); in the experiment with MDA-MB-435, > 100 µM (inactive); with SK-MEL-5 it was > 100 µM (inactive); with IGROV-1, > 100 µM (inactive); in the experiment on DU-145 it was > 100 µM (inactive). For the same compound, the GI50 in the experiment with M14 was > 100 µM (inactive).
Take `COC1CC(OC2C(C)OC(OC3C(C)OC(OC4C(C)OC(O[C@H]5CC[C@@]6(C)C(=CC[C@]7(O)[C@@H]6C[C@@H](OC(=O)/C=C/c6ccccc6)[C@@]6(C)[C@]7(O)CC[C@@]6(O)C(C)=O)C5)CC4OC)CC3OC)CC2OC)OC(C)C1O` (stereo not given in full): the GI50 in the experiment with OVCAR-8, with ACHN, with SNB-75, with HOP-92, with EKVX and with A549 was > 12.5 µM (inactive) throughout. Besides, the GI50 with NCI-H23 was > 12.5 µM (inactive); with PC-3, > 12.5 µM (inactive); with SF-539 it was > 12.5 µM (inactive); in the experiment on NCI-H522, > 12.5 µM (inactive); with HCT-15, above 12.5 µM; in the experiment on RPMI-8226, 5.98 µM (inactive). The GI50 with HT-29 was > 12.5 µM (inactive); in the experiment on MDA-MB-435, > 12.5 µM (inactive); with SK-MEL-5, 11.4 µM (inactive); in the experiment with IGROV-1 it was > 12.5 µM (inactive); with DU-145, > 12.5 µM (inactive); in the experiment on OVCAR-3 it was 11 µM (inactive). Besides, the GI50 in the experiment with M14 is > 12.5 µM (inactive).
As to `NC(=O)[N+](=CC(=S)Nc1ccccc1Cl)C(N)=O`, the GI50 in the experiment with OVCAR-8, in the experiment on NCI-H460, in the experiment with ACHN, in the experiment with HOP-92, in the experiment with EKVX and with A549 was > 100 µM (inactive) throughout. The GI50 in the experiment with NCI-H23 was > 100 µM (inactive); in the experiment with PC-3 it was > 100 µM (inactive); in the experiment with SF-539 it was > 100 µM (inactive); in the experiment with NCI-H522, > 100 µM (inactive); in the experiment on HCT-15, above 100 µM; with RPMI-8226 it was > 100 µM (inactive). In addition, the GI50 in the experiment on HT-29, in the experiment on MDA-MB-435, in the experiment on SK-MEL-5, in the experiment with IGROV-1, in the experiment with DU-145 and with OVCAR-3 was > 100 µM (inactive) in each case. The GI50 with M14 is > 100 µM (inactive).
As to `CCOC(=O)CC(C)C(C#N)(OP1(=O)OC(c2ccccc2)C(C)N1C)c1ccccc1` (stereo not given), the GI50 in the experiment with OVCAR-8 is 46.1 µM (inactive); with NCI-H460, 47.4 µM (inactive); in the experiment on ACHN, 44.1 µM (inactive); with HOP-92 it was 17.8 µM (inactive); in the experiment on EKVX it was 62.2 µM (inactive); in the experiment on A549, 47 µM (inactive). In addition, the GI50 is 66.1 µM (inactive) in the experiment with NCI-H23; 33.6 µM (inactive) with PC-3; > 100 µM (inactive) in the experiment on SF-539; 62.5 µM (inactive) in the experiment on NCI-H522; 43.7 µM with HCT-15; 36.3 µM (inactive) in the experiment on RPMI-8226. For the same compound, the GI50 is 57.7 µM (inactive) with HT-29; 61 µM (inactive) in the experiment on MDA-MB-435; 47.6 µM (inactive) with SK-MEL-5; 55.2 µM (inactive) with IGROV-1; 97.5 µM (inactive) in the experiment on DU-145; 50.7 µM (inactive) in the experiment with OVCAR-3. In the experiment with M14, the GI50 was 68.5 µM (inactive).
Take `Cc1cc(=O)nc(S(=O)(=O)NC(=O)Nc2cccc(Cl)c2)[nH]1`: the GI50 in the experiment on OVCAR-8 is > 100 µM (inactive); with NCI-H460, > 100 µM (inactive); in the experiment with ACHN, > 100 µM (inactive); with SNB-75, 49.4 µM (inactive); with HOP-92, 6.93 µM (inactive); in the experiment with EKVX, > 100 µM (inactive). Also, the GI50 is > 100 µM (inactive) in the experiment on A549; > 100 µM (inactive) in the experiment on NCI-H23; > 30.5 µM (inactive) in the experiment on PC-3; > 100 µM (inactive) with SF-539; > 100 µM (inactive) with NCI-H522; above 100 µM in the experiment with HCT-15. The GI50 in the experiment with HT-29 is > 100 µM (inactive); with MDA-MB-435 it was > 33.5 µM (inactive); in the experiment on SK-MEL-5 it was > 100 µM (inactive); in the experiment with IGROV-1, > 100 µM (inactive); with DU-145, > 100 µM (inactive); in the experiment on OVCAR-3 it was 47.1 µM (inactive). The GI50 with M14 was > 100 µM (inactive).
For the compound `C/C(=N\NC(=S)NC(C)(C)C)c1ccccn1`, the GI50 in the experiment with ACHN is < 0.01 µM (active); with SNB-75, 11.7 µM (inactive); in the experiment with HOP-92, 0.342 µM (active); in the experiment on A549, 0.248 µM (active); in the experiment with NCI-H23, < 0.0172 µM (active); in the experiment on PC-3, < 0.01 µM (active). In addition, the GI50 in the experiment with SF-539 is 1.88 µM (inactive); in the experiment on NCI-H522, 0.191 µM (active); in the experiment on HCT-15, below 0.01 µM; in the experiment on RPMI-8226, < 0.01 µM (active); in the experiment on MDA-MB-435, 1.52 µM (inactive); in the experiment with SK-MEL-5 it was 0.153 µM (active). Besides, the GI50 is < 0.01 µM (active) in the experiment with IGROV-1, 1.69 µM (inactive) in the experiment on DU-145, < 0.01 µM (active) with OVCAR-3 and < 0.0314 µM (active) in the experiment on M14.
Take `Fc1ccc2nc3n(c2c1)C(c1c(F)cccc1F)SC3` (stereo not given): the GI50 is 65.6 µM (inactive) in the experiment on OVCAR-8; 44 µM (inactive) in the experiment on NCI-H460; 67.9 µM (inactive) in the experiment with ACHN; 31.6 µM (inactive) with SNB-75; 46 µM (inactive) with HOP-92; 58.3 µM (inactive) in the experiment with A549. Also, the GI50 was 55 µM (inactive) in the experiment with NCI-H23; 40.7 µM (inactive) in the experiment with PC-3; > 100 µM (inactive) in the experiment with SF-539; 28.1 µM (inactive) in the experiment on NCI-H522; 51.8 µM with HCT-15; 60.4 µM (inactive) in the experiment with RPMI-8226. Besides, the GI50 in the experiment on HT-29 is 33.3 µM (inactive); with MDA-MB-435, 40.5 µM (inactive); in the experiment on SK-MEL-5, 26.7 µM (inactive); with IGROV-1 it was > 100 µM (inactive); in the experiment with DU-145 it was > 100 µM (inactive); with OVCAR-3, 54.8 µM (inactive). Also, in the experiment with M14, the GI50 is 49.1 µM (inactive).
In the case of `CCC/C(Cl)=N\OC(=O)Nc1ccc(F)cc1`, the GI50 in the experiment on OVCAR-8 was 25.4 µM (inactive); in the experiment on NCI-H460, > 100 µM (inactive); in the experiment on ACHN, 12.3 µM (inactive); in the experiment on SNB-75 it was > 42.7 µM (inactive); in the experiment on HOP-92 it was 4.43 µM (inactive); in the experiment on EKVX, 17.3 µM (inactive). The GI50 was 52.8 µM (inactive) in the experiment on A549; 20.3 µM (inactive) in the experiment on NCI-H23; 17.3 µM (inactive) in the experiment on PC-3; 1.87 µM (inactive) with NCI-H522; 5.82 µM in the experiment on HCT-15; 6.01 µM (inactive) with RPMI-8226. Besides, the GI50 in the experiment on HT-29 was 28.3 µM (inactive); with MDA-MB-435, 16.5 µM (inactive); in the experiment on SK-MEL-5, 13.3 µM (inactive); in the experiment on IGROV-1, 17.3 µM (inactive); in the experiment on DU-145, 17 µM (inactive); with OVCAR-3, 5.24 µM (inactive). Moreover, the GI50 with M14 was 14.6 µM (inactive).
For the compound `Cc1cc(=O)oc2cc(O)ccc12` [HYMECROMONE], the GI50 in the experiment with OVCAR-8 was > 100 µM (inactive); in the experiment on NCI-H460, > 100 µM (inactive); in the experiment with ACHN, > 100 µM (inactive); in the experiment on SNB-75, 39.1 µM (inactive); with HOP-92, 79.8 µM (inactive); in the experiment on EKVX, > 100 µM (inactive). The GI50 is > 100 µM (inactive) in the experiment with A549; > 100 µM (inactive) in the experiment with NCI-H23; > 100 µM (inactive) in the experiment on PC-3; > 100 µM (inactive) with SF-539; > 100 µM (inactive) in the experiment on NCI-H522; above 100 µM with HCT-15. In addition, the GI50 in the experiment with RPMI-8226, with HT-29, in the experiment on MDA-MB-435, in the experiment with SK-MEL-5, in the experiment on IGROV-1 and with DU-145 was > 100 µM (inactive) in each case. Further, the GI50 in the experiment with OVCAR-3 was > 100 µM (inactive).
